Patent US12157713B2, “Conjugated oligoelectrolytes as antimicrobial agents” (Nanyang Technological University, priority 2018, dated 2024)
Like-named read-outs stand apart in the source and are kept apart here.

How the values were obtained:
E. coli K12 [1] = test: MIC by broth microdilution against E. coli K12; format: cell-based; conditions: Escherichia coli
Protocol: The respective minimum inhibition concentration (MIC) of each COE molecule was determined using a broth microdilution method. Briefly, COEs were diluted via a 2-fold dilution series in 100 μL of either Muller Hinton Broth (MHB) for E. coli and S. aureus or Brain Heart Infusion Broth (BHI) for E. faecalis in a 96-well plate to achieve the desired final concentration. Subsequently, each well was inoculated with 100 μL of 1×10^6 colony forming units (CFU) mL^−1 of the respective microorganism in MHB for E. coli or BHI for E. faecalis to achieve an inoculum density of 5×10^5 CFU mL^−1. The plates were then incubated at 37° C. with shaking (200 rpm) for 18 hrs. […] The results were obtained in triplicate.
The MIC values of COE-D4, COE-D6 and COE-D8 against the reference strain E. coli K12, pathogenic E. coli UT189, and the Gram positive pathogen Enterococcus faecalis OG1RF were determined using a broth microdilution method as described in the general method above. The MICs for E. coli K12 were determined to be 128, 16, and 4 μg mL^−1 for COE-D4, COE-D6, and COE-D8, respectively (FIG. 5a). […] This is not surprising as these two organisms differ in the capsular polysaccharides that they expressed, which are known to hinder the uptake of antimicrobials and mitigate their potency (M. A. Campos, et al., Infect. Immun. 2004, 72, 7107-7114). A K-type capsid comprising α2-8-linked sialic acid is excreted by UT189 and is known to be an important virulence factor for this organism (C. Whitfield, et al., Mol. Microbiol. 1999, 31, 1307-1319; G. G. Anderson, et al., Infect. Immun. 2010, 78, 963-975).

[2] = test system: Klebsiella pneumoniae MDR ATCC 700603; test: Single-dose growth inhibition, Kp; format: cell-based
Protocol: Inhibition of bacterial growth was determined by measuring the absorbance at 600 nm (OD600), using a Tecan M1000 Pro monochromator plate reader. Growth inhibition was calculated for each well, relative to the reference growths determined from a negative control (media only) and positive control (bacteria without inhibitors) incubated in the same plate. A single dose of 32 μg/mL of COE (final concentration) was used for each test.
(§1) Percentage growth inhibition of an individual sample was calculated based on growth in a reference well determined from negative controls (media only) and positive controls (bacterial/fungal media without inhibitors). Negative inhibition values indicate that the growth rate (or OD600) is higher compared to the reference growth (bacteria/fungi only, set to 0% inhibition). The growth rates for all bacteria and fungi may vary at −/+10%, which were within the reported normal distribution of bacterial/fungal growth. Any significant variations (or outliers/hits) were identified by the modified Z-Score, and the active compounds were selected by a combination of inhibition values and Z-Score.
(§2) A M(i) value of >|2.5| (absolute) would classify the sample as outliers or hits. Active samples were denoted as compounds with inhibition values equal to or above 80% and absolute Z-Score above |2.5| for either replicate (n=2 on different plates). Partial active samples were denoted as compounds with inhibition values from 50% to <80%, or absolute Z-Score below |2.5|.

[3] = test system: Cryptococcus neoformans var. grubii H99; ATCC 208821; test: Single-dose growth inhibition, Cn; format: cell-based
Protocol: Growth inhibition of C. albicans was determined by measuring the absorbance at 530 nm (OD530), while the growth inhibition of C. neoformans was determined by measuring the difference in absorbance between 600 and 570 nm (OD600-570), after the addition of resazurin (0.001 wt. % final concentration) and incubation at 35° C. for additional 2 hrs. The absorbance was measured using a Biotek Synergy HTX plate reader. The relative growth inhibition was calculated for each well, relative to that determined from a negative control (media only) and positive control (bacteria without inhibitors) on the same plate as references. A single dose of 32 μg/mL of COE (final concentration) was used for each test.
as §1, §2

E. coli K12 [4] = test: SEM of COE-treated E. coli K12; format: cell-based, Escherichia coli; conditions: 32 μg mL^−1 COE, 2 hrs
Protocol: E. coli K-12 was grown, collected and washed according to the procedure described above (in the uptake measurements). COE solutions (in PBS) were added to a PBS suspension of E. coli K12 (OD600=1.0) to achieve final COE concentrations of 32 μg/mL. After incubating for 2 hrs at room temperature under shaking (200 rpm), the microbes were immediately fixed with 2.5% glutaraldehyde solution at 4° C. overnight. 10 μL of the fixed bacteria suspension was spotted onto the SEM conducting paste and left to dry in air. The bacteria samples were dehydrated with a series of increasingly concentrated ethanol solution (20%-100%). After drying overnight, the samples were coated with platinum and imaged with FESEM (JEOL JSM-6700F) to characterise the morphology of the samples.
Characterisation of treated E. coli K12 by scanning electron microscopy (SEM) COE-treated cells were characterised by SEM. E. coli K12 ([…]) were treated with 32 μg mL^−1 of each COE. […] This is consistent with the proposal that COE insertion disrupts membrane integrity and this effect is of a greater magnitude for COE-D8.

[5] = K12, 18 h, read-out: MIC against E. coli K12
[6] = K12, read-out: MIC against E. coli K12
[7] = K12, read-out: MICeff (MIC×U %)
[8] = ATCC700603, read-out: Growth inhibition Kp
[9] = ATCC208821, read-out: Growth inhibition Cn
[10] = K12, broth microdilution, MHB, 18 hrs, read-out: MIC against E. coli K12
[11] = ATCC700603, 32 μg/mL single dose, n=2, read-out: Growth inhibition Kp
[12] = ATCC208821, 32 μg/mL single dose, n=2, read-out: Growth inhibition Cn

Structure (SMILES)	MIC (E. coli K12 [1]; [5]) [µg/mL]	MIC (E. coli K12 [1]; [6]) [µg/mL]	MIC (E. coli K12 [1]; [7]) [µg/mL]	inhibition at 32 µg/mL [2, 8] [%]	inhibition at 32 µg/mL [3, 9] [%]	Morphology of treated E. coli K12 by SEM (E. coli K12 [4])	MIC (E. coli K12 [1]; [10]) [µg/mL]	inhibition at 32 µg/mL [2, 11] [%]	inhibition at 32 µg/mL [3, 12] [%]
C[N+](C)(C)CCCCOc1ccc(/C=C/c2ccc(OCCCC[N+](C)(C)C)cc2)cc1 [COE-D4]	128	128	3.8	< 50	> 80	rod-shaped cells with smooth outer surfaces			
C[N+](C)(C)CCCCCCOc1ccc(/C=C/c2ccc(OCCCCCC[N+](C)(C)C)cc2)cc1 [COE-D6]	16	16	2.6	< 50	> 80	pitting and membrane rupture			
C[N+](C)(C)CCCCCCCCOc1ccc(/C=C/c2ccc(OCCCCCCCC[N+](C)(C)C)cc2)cc1 [COE-D8]	4	4	2.9	50 to 80	> 80	pitting and membrane rupture			
CN(C)CC[N+](C)(C)CCCCCCOc1ccc(/C=C/c2ccc(OCCCCCC[N+](C)(C)CCN(C)C)cc2)cc1 [COE-D62N]							8	< 50	> 80
CN(C)CC[N+](C)(C)CCCCCCCCOc1ccc(/C=C/c2ccc(OCCCCCCCC[N+](C)(C)CCN(C)C)cc2)cc1 [COE-D82N]							8	> 80	> 80
